Source: PubChem BioAssay AID1963840 (Molecular Pharmacology Branch, DTP, NCI, 2024)

Tested on: 695427-040-R-J1-PDC complex spheroid viability
Experiment: Anticancer human tumor 695427-040-R-J1-PDC patient-derived colon adenocarcinoma cell line growth inhibition [POLQ]
Conditions: for IC50: curve of first compound; for viability, T/C: stronger effect = lower value
In short: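 Complex spheroid viability model combining PDC tumour cells with endothelial (HUVEC) and MSC stromal cells. Novobiocin, ART-558 or RP6685 were tested singly and in combination with standard and investigational anticancer drugs. Each was titrated in half-log steps from near clinical Cmax, or from 10 microM where Cmax was unknown.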

[1] = second compound 0.0316 µM, first compound 0.0316 µM
[2] = second compound 0.0316 µM, first compound 0.1 µM
[3] = second compound 0.0316 µM, first compound 0.316 µM
[4] = second compound 0.0316 µM, first compound 1 µM
[5] = second compound 0.0316 µM, first compound 3.16 µM
[6] = second compound 0.0316 µM, first compound 10 µM
[7] = second compound 0.1 µM, first compound 0.0316 µM
[8] = second compound 0.1 µM, first compound 0.1 µM
[9] = second compound 0.1 µM, first compound 0.316 µM
[10] = second compound 0.1 µM, first compound 1 µM
[11] = second compound 0.1 µM, first compound 3.16 µM
[12] = second compound 0.1 µM, first compound 10 µM
[13] = second compound 0.316 µM, first compound 0.0316 µM
[14] = second compound 0.316 µM, first compound 0.1 µM
[15] = second compound 0.316 µM, first compound 0.316 µM
[16] = second compound 0.316 µM, first compound 1 µM
[17] = second compound 0.316 µM, first compound 3.16 µM
[18] = second compound 0.316 µM, first compound 10 µM
[19] = second compound 1 µM, first compound 0.0316 µM
[20] = second compound 1 µM, first compound 0.1 µM
[21] = second compound 1 µM, first compound 0.316 µM
[22] = second compound 1 µM, first compound 1 µM
[23] = second compound 1 µM, first compound 3.16 µM
[24] = second compound 1 µM, first compound 10 µM
[25] = second compound 3.16 µM, first compound 0.0316 µM
[26] = second compound 3.16 µM, first compound 0.1 µM
[27] = second compound 3.16 µM, first compound 0.316 µM
[28] = second compound 3.16 µM, first compound 1 µM
[29] = second compound 3.16 µM, first compound 3.16 µM
[30] = second compound 3.16 µM, first compound 10 µM
[31] = second compound 10 µM, first compound 0.0316 µM
[32] = second compound 10 µM, first compound 0.1 µM
[33] = second compound 10 µM, first compound 0.316 µM
[34] = second compound 10 µM, first compound 1 µM
[35] = second compound 10 µM, first compound 3.16 µM
[36] = second compound 10 µM, first compound 10 µM
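Further: spheroids exposed to compounds for seven days.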
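Wherever viability, T/C is given: 100% = DMSO vehicle control viability.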

## CC1COCCN1c1cc(-c2ccnn2C)c2ccnc(-c3ccn[nH]3)c2n1 (stereo unspecified) + COC1C(OC(N)=O)C(O)C(Oc2ccc3c(O)c(NC(=O)c4ccc(O)c(CC=C(C)C)c4)c(=O)oc3c2C)OC1(C)C
Second compound 0.0316 µM
  IC50: 1.21 µM
Second compound 0.1 µM
  IC50: 1.13 µM
Second compound 0.316 µM
  IC50: 1.56 µM
Second compound 1 µM
  IC50: 0.748 µM
Second compound 3.16 µM
  IC50: 1.21 µM
Second compound 10 µM
  IC50: 1.47 µM
[1]
  viability, T/C: 97.2%
[2]
  viability, T/C: 83.3%
[3]
  viability, T/C: 63.5%
[4]
  viability, T/C: 50.3%
[5]
  viability, T/C: 47%
[6]
  viability, T/C: 44.8%
[7]
  viability, T/C: 97.5%
[8]
  viability, T/C: 81.1%
[9]
  viability, T/C: 64.2%
[10]
  viability, T/C: 49.9%
[11]
  viability, T/C: 44.3%
[12]
  viability, T/C: 44.7%
[13]
  viability, T/C: 104%
[14]
  viability, T/C: 79.7%
[15]
  viability, T/C: 61.4%
[16]
  viability, T/C: 51.2%
[17]
  viability, T/C: 48.5%
[18]
  viability, T/C: 44.6%
[19]
  viability, T/C: 93.5%
[20]
  viability, T/C: 85.9%
[21]
  viability, T/C: 58.2%
[22]
  viability, T/C: 49.4%
[23]
  viability, T/C: 46.6%
[24]
  viability, T/C: 41.8%
[25]
  viability, T/C: 95.8%
[26]
  viability, T/C: 86.8%
[27]
  viability, T/C: 63.3%
[28]
  viability, T/C: 52.1%
[29]
  viability, T/C: 47.6%
[30]
  viability, T/C: 44.7%
[31]
  viability, T/C: 90.8%
[32]
  viability, T/C: 80.6%
[33]
  viability, T/C: 65.9%
[34]
  viability, T/C: 47.5%
[35]
  viability, T/C: 51%
[36]
  viability, T/C: 46.2%

## CCc1cc2c(N3CCc4c(cc(Cn5ccnc5)cc4-c4cn(C)nc4C(F)(F)F)C3=O)ccnc2c(OC)n1 + COC1C(OC(N)=O)C(O)C(Oc2ccc3c(O)c(NC(=O)c4ccc(O)c(CC=C(C)C)c4)c(=O)oc3c2C)OC1(C)C
Second compound 0.0316 µM
  IC50: > 10 µM
Second compound 0.1 µM
  IC50: > 10 µM
Second compound 0.316 µM
  IC50: > 10 µM
Second compound 1 µM
  IC50: > 10 µM
Second compound 3.16 µM
  IC50: > 10 µM
Second compound 10 µM
  IC50: > 10 µM
[1]
  viability, T/C: 110%
[2]
  viability, T/C: 111%
[3]
  viability, T/C: 106%
[4]
  viability, T/C: 116%
[5]
  viability, T/C: 114%
[6]
  viability, T/C: 97.2%
[7]
  viability, T/C: 111%
[8]
  viability, T/C: 103%
[9]
  viability, T/C: 115%
[10]
  viability, T/C: 109%
[11]
  viability, T/C: 116%
[12]
  viability, T/C: 105%
[13]
  viability, T/C: 111%
[14]
  viability, T/C: 116%
[15]
  viability, T/C: 108%
[16]
  viability, T/C: 101%
[17]
  viability, T/C: 109%
[18]
  viability, T/C: 95.6%
[19]
  viability, T/C: 116%
[20]
  viability, T/C: 112%
[21]
  viability, T/C: 109%
[22]
  viability, T/C: 98.3%
[23]
  viability, T/C: 111%
[24]
  viability, T/C: 101%
[25]
  viability, T/C: 103%
[26]
  viability, T/C: 104%
[27]
  viability, T/C: 107%
[28]
  viability, T/C: 105%
[29]
  viability, T/C: 117%
[30]
  viability, T/C: 101%
[31]
  viability, T/C: 111%
[32]
  viability, T/C: 92.7%
[33]
  viability, T/C: 108%
[34]
  viability, T/C: 106%
[35]
  viability, T/C: 113%
[36]
  viability, T/C: 96.3%

## O=C(Nc1ccc(O)c(NS(=O)(=O)c2ccc(F)cc2)c1)c1ccc(-c2ccccc2)cc1 + COC1C(OC(N)=O)C(O)C(Oc2ccc3c(O)c(NC(=O)c4ccc(O)c(CC=C(C)C)c4)c(=O)oc3c2C)OC1(C)C
Second compound 0.0316 µM
  IC50: > 10 µM
Second compound 0.1 µM
  IC50: > 10 µM
Second compound 0.316 µM
  IC50: > 10 µM
Second compound 1 µM
  IC50: > 10 µM
Second compound 3.16 µM
  IC50: > 10 µM
Second compound 10 µM
  IC50: > 10 µM
[1]
  viability, T/C: 104%
[2]
  viability, T/C: 97.7%
[3]
  viability, T/C: 105%
[4]
  viability, T/C: 103%
[5]
  viability, T/C: 103%
[6]
  viability, T/C: 89.3%
[7]
  viability, T/C: 116%
[8]
  viability, T/C: 99.9%
[9]
  viability, T/C: 106%
[10]
  viability, T/C: 102%
[11]
  viability, T/C: 103%
[12]
  viability, T/C: 95.8%
[13]
  viability, T/C: 103%
[14]
  viability, T/C: 103%
[15]
  viability, T/C: 110%
[16]
  viability, T/C: 105%
[17]
  viability, T/C: 104%
[18]
  viability, T/C: 104%
[19]
  viability, T/C: 110%
[20]
  viability, T/C: 107%
[21]
  viability, T/C: 107%
[22]
  viability, T/C: 106%
[23]
  viability, T/C: 108%
[24]
  viability, T/C: 90.8%
[25]
  viability, T/C: 108%
[26]
  viability, T/C: 101%
[27]
  viability, T/C: 102%
[28]
  viability, T/C: 110%
[29]
  viability, T/C: 115%
[30]
  viability, T/C: 89.7%
[31]
  viability, T/C: 104%
[32]
  viability, T/C: 100%
[33]
  viability, T/C: 112%
[34]
  viability, T/C: 105%
[35]
  viability, T/C: 114%
[36]
  viability, T/C: 88.3%
